Measurements taken from PubChem BioAssay AID1745844 (Carcinogenic Potency Database (CPDB), 2022).
Calls of active or inactive are those of the source. How the calls were made is not given here.

System: rodent lifetime carcinogenesis bioassay, tumor incidence TD50
Experiment: chronic cancer bioassays in animals – CPDB, compiled studies (AID 1745844)

Nc1ccccc1
TD50 (mouse, strain B6C3F1, females, in feed, site: any site (literature study), lesion: several types, types named in the paper, dosed 103 weeks, study length 107 weeks): 9150 mg/kg/day (inactive) | TD50 (mouse, strain B6C3F1, females, in feed, site: liver, lesion: hepatocellular adenoma + hepatocellular carcinoma + neoplastic nodule, dosed 103 weeks, study length 107 weeks): 8850 mg/kg/day | carcinogen call (mouse, strain B6C3F1, males, in feed, site: any site (literature study), lesion: several types, types named in the paper, dosed 103 weeks, study length 107 weeks): negative (inactive) | TD50 (rat, strain Fischer 344, females, in feed, site: liver, lesion: hepatocellular adenoma + hepatocellular carcinoma + neoplastic nodule, dosed 103 weeks, study length 107 weeks): 13000 mg/kg/day | TD50 (rat, strain Fischer 344, females, in feed, site: multiple organs + spleen, lesion: fibrosarcoma + sarcoma, NOS, dosed 103 weeks, study length 107 weeks): 1740 mg/kg/day | TD50 (rat, strain Fischer 344, males, in feed, site: adrenal gland, lesion: pheochromocytoma + pheochromocytoma, malignant, dosed 103 weeks, study length 107 weeks): 556 mg/kg/day | TD50 (rat, strain Fischer 344, males, in feed, site: any site (literature study), lesion: several types, types named in the paper, dosed 103 weeks, study length 107 weeks): 124 mg/kg/day | TD50 (rat, strain Fischer 344, males, in feed, site: body cavities + multiple organs + spleen, lesion: mesothelioma, NOS + fibrosarcoma + hemangiosarcoma + sarcoma, NOS, dosed 103 weeks, study length 107 weeks): 88 mg/kg/day | TD50 (rat, strain Fischer 344, males, in feed, site: body cavities + multiple organs + spleen, lesion: mesothelioma, NOS + fibrosarcoma + sarcoma, NOS, dosed 103 weeks, study length 107 weeks): 263 mg/kg/day | TD50 (rat, strain Fischer 344, males, in feed, site: body cavities + multiple organs + spleen, lesion: mesothelioma, NOS + hemangiosarcoma, dosed 103 weeks, study length 107 weeks): 146 mg/kg/day | TD50 (rat, strain Fischer 344, males, in feed, site: body cavities + multiple organs, lesion: mesothelioma, NOS + fibrosarcoma + sarcoma, NOS, dosed 103 weeks, study length 107 weeks): 572 mg/kg/day | TD50 (rat, strain Fischer 344, males, in feed, site: spleen, lesion: fibrosarcoma + sarcoma, NOS, dosed 103 weeks, study length 107 weeks): 451 mg/kg/day | TD50 (rat, strain Fischer 344, males, in feed, site: spleen, lesion: hemangiosarcoma, dosed 103 weeks, study length 107 weeks): 160 mg/kg/day

CCCCCCCCCCCN(C)N=O
TD50 (rat, strain Fischer 344, males, by gavage, site: esophagus, lesion: squamous-cell carcinoma, dosed 30 weeks, study length 65 weeks): 15.4 mg/kg/day | TD50 (rat, strain Fischer 344, males, by gavage, site: liver, lesion: cholangiocarcinoma, dosed 30 weeks, study length 65 weeks): 3.18 mg/kg/day | TD50 (rat, strain Fischer 344, males, by gavage, site: liver, lesion: hepatocellular carcinoma, dosed 30 weeks, study length 65 weeks): 2.38 mg/kg/day | TD50 (rat, strain Fischer 344, males, by gavage, site: lung, lesion: alveolar adenoma, dosed 30 weeks, study length 65 weeks): 2.41 mg/kg/day | TD50 (rat, strain Fischer 344, males, by gavage, site: lung, lesion: alveolar-cell adenoma, dosed 30 weeks, study length 65 weeks): 4.99 mg/kg/day | TD50 (rat, strain Fischer 344, males, by gavage, site: lung, lesion: squamous-cell carcinoma, dosed 30 weeks, study length 65 weeks): 2.37 mg/kg/day | TD50 (rat, strain Fischer 344, males, by gavage, site: stomach, nonglandular, lesion: papilloma, dosed 30 weeks, study length 65 weeks): 15.4 mg/kg/day

NC(=O)NN=Cc1ccc([N+](=O)[O-])o1
TD50 (mouse, strain B6C3F1, females, in feed, site: any site (literature study), lesion: several types, types named in the paper, dosed 103 weeks, study length 104 weeks): 66.2 mg/kg/day | TD50 (mouse, strain B6C3F1, females, in feed, site: lung, lesion: alveolar/bronchiolar adenoma + alveolar/bronchiolar carcinoma, dosed 103 weeks, study length 104 weeks): 241 mg/kg/day | TD50 (mouse, strain B6C3F1, females, in feed, site: ovary, lesion: granulosa-cell tumor + mixed tumor, benign, dosed 103 weeks, study length 104 weeks): 22.4 mg/kg/day | TD50 (mouse, strain B6C3F1, females, in feed, site: ovary, lesion: granulosa-cell tumor, dosed 103 weeks, study length 104 weeks): 124 mg/kg/day | TD50 (mouse, strain B6C3F1, females, in feed, site: ovary, lesion: mixed tumor, benign + tubular adenoma, dosed 103 weeks, study length 104 weeks): 29.8 mg/kg/day | TD50 (mouse, strain B6C3F1, females, in feed, site: ovary, lesion: mixed tumor, benign, dosed 103 weeks, study length 104 weeks): 30.8 mg/kg/day | TD50 (mouse, strain B6C3F1, males, in feed, site: any site (literature study), lesion: several types, types named in the paper, dosed 103 weeks, study length 104 weeks): 89.3 mg/kg/day | TD50 (mouse, strain B6C3F1, males, in feed, site: liver, lesion: hepatocellular adenoma + hepatocellular carcinoma + neoplastic nodule, dosed 103 weeks, study length 104 weeks): 152 mg/kg/day | TD50 (mouse, strain B6C3F1, males, in feed, site: lung, lesion: alveolar/bronchiolar adenoma + alveolar/bronchiolar carcinoma, dosed 103 weeks, study length 104 weeks): 1380 mg/kg/day | TD50 (mouse, strain B6C3F1, males, in feed, site: subcutaneous tissue, lesion: fibrosarcoma + fibroma + neurofibrosarcoma + sarcoma, NOS, dosed 103 weeks, study length 104 weeks): 154 mg/kg/day (inactive) | TD50 (rat, strain Fischer 344, females, in feed, site: liver, lesion: hepatocellular adenoma + hepatocellular carcinoma + neoplastic nodule, dosed 103 weeks, study length 104 weeks): 253 mg/kg/day | TD50 (rat, strain Fischer 344, females, in feed, site: mammary gland, lesion: fibroadenoma, dosed 103 weeks, study length 104 weeks): 15.7 mg/kg/day | TD50 (rat, strain Fischer 344, males, in feed, site: any site (literature study), lesion: several types, types named in the paper, dosed 103 weeks, study length 104 weeks): 33.8 mg/kg/day | TD50 (rat, strain Fischer 344, males, in feed, site: preputial gland, lesion: carcinoma, NOS, dosed 103 weeks, study length 104 weeks): 65.5 mg/kg/day | TD50 (rat, strain Fischer 344, males, in feed, site: skin, lesion: sebaceous adenoma + trichoepithelioma, dosed 103 weeks, study length 104 weeks): 151 mg/kg/day | TD50 (rat, strain Fischer 344, males, in feed, site: skin, lesion: sebaceous adenoma, dosed 103 weeks, study length 104 weeks): 177 mg/kg/day | TD50 (rat, strain Fischer 344, males, in feed, site: tunica vaginalis, lesion: mesothelioma, NOS + mesothelioma, malignant, dosed 103 weeks, study length 104 weeks): 44 mg/kg/day | TD50 (rat, strain Holtzman albino (Sprague-Dawley derived), females, in feed, site: mammary gland, lesion: fibroadenoma, dosed 36 weeks, study length 54 weeks): 6.52 mg/kg/day | carcinogen call (rat, strain Holtzman albino (Sprague-Dawley derived), females, in feed, site: mammary tissue, wider than the gland, lesion: one or several types, types not named, dosed 44 weeks, study length 60 weeks): positive | TD50 (rat, strain Sprague-Dawley, females, in feed, site: mammary tissue, wider than the gland, lesion: one or several types, types not named, dosed 46 weeks, study length 66 weeks): 7.12 mg/kg/day
